Legend:
[1] = molecular target: T1, rat neurotensin receptor type 1 (rNTR-1) (Rattus norvegicus, UniProt P20789); assay: Competition binding assay with [3H]-neurotensin on rat NTR-1 membranes (HEK293 cells); details: read-out: NTR-1 binding affinity Ki, Rat NTR-1
T1 construct: host or cells: HEK293 cells (membrane homogenates)

Swiss (CD-1) mice = assay: Hypothermic response upon four daily i.v. administrations in Swiss (CD-1) mice; assay type: in vivo, mouse; details: 4 mg/kg eq. NT daily i.v.
Method: In order to determine the hypothermic responsiveness of mice upon repeated administrations of activated NT of the invention, Swiss (CD-1) mice were challenged to four daily intravenous (bolus) administrations of compound XIV at 4 mg/kg eq. NT. Rectal body temperature was monitored each day during 3 hours post-injection.

[2] = tested on: FVB/N mice with KA-induced status epilepticus; assay: Kainic acid-induced status epilepticus model (body temperature, seizures, neurodegeneration, neuroinflammation, mossy fiber sprouting); assay type: in vivo, mouse
Excerpt: In the present case, excitotoxicity was induced by subcutaneous (s.c.) injection of kainic acid (KA), a pro-convulsant agent known to induce a status epilepticus (SE) with excitotoxicity, neuroinflammation, and severe neuronal damage in the hippocampus that can be observed 3 to 7 days after KA administration, and with aberrant axonal sprouting of the dentate gyrus mossy fibers that can be observed at 7-8 weeks after KA administration. We tested the effect of compound XIV on i) epileptic activity (persistence of recurrent seizures), ii) neurodegeneration, neuroinflammation and the resulting brain tissue damage and iii) aberrant axonal sprouting of the dentate gyrus mossy fibers.
FVB/N adult male mice were injected with a single dose of KA (40-45 mg/kg s.c.) to generate mice with spontaneous recurrent seizures as a hallmark of SE. A negative control group of mice were administered saline 0.9% instead of KA and no further treatment (“SHAM”, n=5). Thirty minutes after the onset of SE, mice received either an intravenous (tail vein) bolus injection of compound XIV at the dose of 4 mg/kg eq. NT (treatment group “SE+HT”, n=5) or saline 0.9% (group “SE”, n=5), or a high dose of diazepam (DZP) at 15 mg/kg), a potent anti-convulsive and anti-epileptic drug (positive control group “SE+DZP”). Body temperature was monitored before KA injection and then every 15 min during 6 hours thereafter, using a rectal probe. During this period, mice were assessed for the occurrence and severity of motor seizures. One week later, animals were sacrificed for histological assessment of neuronal cell death on coronal sections, the hippocampal formation being the main structure in the brain showing tissue damage in this model of excitotoxicity. Another group of animals with the same treatments was sacrificed 8 weeks for histological assessment of aberrant axonal sprouting of the dentate gyrus mossy fibers.
Administration of KA (40-45 mg/kg; s.c.) caused characteristic sequential behavioral changes. Immediately after being injected, all animals developed immobility (stage 1). Within 30 minutes after KA injection, automatisms with head nodding, forelimb clonus and circling behavior (stages 2-3) were observed. Then most animals progressed to intermittent (stage 4) followed by continuous (stage 5) rearing with forelimb clonus and falling behavior. […] Only animals attaining at least Racine stage 5 seizures were included in the study. The SE occurred around 2 hours after KA injection, was characterized by stage 5-6 seizures and often associated with hyperthermia (FIG. 13A). Compound XIV administered 30 min after SE onset (SE30) invariably led to transient hypothermia (FIG. 13A), which persisted at least 2 hrs. Mean decreases in body temperature (BT) of −2.5° C. and −3.6° C. were respectively recorded for SE30+ compound XIV animals as compared to SE animals (F=52.34; ***P<0.001). […] SE30+ compound XIV animals presented an average of stage 2 seizures or fewer during the rest of experiment. A subset of animals was administered i.p. a high dose of diazepam (DZP). […] Thus, administration of compound XIV at the dose of 4 mg/kg eq. […] This effect correlated with a −3 to −6° C. decrease in body temperature during ˜2.5 hours.
Using the anti-NeuN antibody and Fluoro-jade C that respectively label a neuronspecific nuclear protein and neuronal death, we observed a broad loss of CA1 and CA3 pyramidal cells as well as some dentate hilar neurons in the hippocampus of control SE animals (FIG. 14A, panel B), as compared to SHAM animals (FIG. 14A, panel A).
SE-induced gliosis involved microglia and astroglial cell types. We used GFAP and Iba1 immunolabeling to estimate the effect of compound XIV on neuroinflammation. In SHAM animals, a basal labeling for GFAP and Iba1 was detected in the HF (FIG. 14A, panel D). In SE animals, a very strong activation of glial cells occurred in all hippocampal layers (FIG. 14, panels E, H). […]

[3] = administered 30 min after SE onset

T1 sequence (P20789 whole entry): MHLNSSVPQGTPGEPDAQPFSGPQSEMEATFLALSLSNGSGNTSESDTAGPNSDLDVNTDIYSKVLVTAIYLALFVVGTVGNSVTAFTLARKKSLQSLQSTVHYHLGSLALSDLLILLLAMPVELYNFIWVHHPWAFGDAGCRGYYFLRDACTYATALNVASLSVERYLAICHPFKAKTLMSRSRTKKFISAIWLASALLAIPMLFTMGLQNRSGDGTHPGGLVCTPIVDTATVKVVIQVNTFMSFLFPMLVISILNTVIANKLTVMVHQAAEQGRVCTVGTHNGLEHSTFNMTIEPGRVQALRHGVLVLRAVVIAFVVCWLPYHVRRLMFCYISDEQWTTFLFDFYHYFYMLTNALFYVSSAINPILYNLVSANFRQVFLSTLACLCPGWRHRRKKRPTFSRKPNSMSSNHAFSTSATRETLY

CCC(=O)N[C@@H]1CSSC[C@@H](C(=O)NCCOCCOCCOCCOCCOCCOCCC(=O)N[C@@H](CCCNC(=N)N)C(=O)N[C@@H](CCCNC(=N)N)C(=O)N2CCC[C@H]2C(=O)N[C@@H](Cc2ccc(O)cc2)C(=O)N[C@H](C(=O)N[C@@H](CC(C)C)C(=O)O)[C@@H](C)CC)NC(=O)CN(C)C(=O)[C@H](CCCNC(=N)N)NC(=O)[C@H](CC(C)C)NC(=O)[C@H](CCCNC(=N)N)NC(=O)[C@@H]2CCCCN2C(=O)[C@H](CCSC)NC1=O [Compound XIV, Pr-cMPipRLRSarC-PEG6-RRPYIL-OH]
Ki [1]: 1.06 ± 0.47 nM | maximal decrease in body temperature, day 1 (Swiss (CD-1) mice; day 1, 45 min post-injection): −5.5 °C | mean decrease in body temperature, day 2 to day 4 (Swiss (CD-1) mice; day 2 to day 4, 30 min post-injection): −3 °C | decrease in body temperature ([2]; 4 mg/kg eq. NT i.v., during ~2.5 hours): −3 to −6 °C | mean decrease in body temperature compared to SE animals (second value) ([2]; 30 min after SE onset, second of two values, presumably 4 mg/kg eq. NT): −3.6 °C | glial inflammatory response in the hippocampus (GFAP, Iba1) compared with SE animals [2, 3]: significantly decreased | persistence of transient hypothermia [2, 3]: at least 2 hrs | seizure intensity compared with SE group [2, 3]: significant decrease of seizures | seizure stage (Racine) during the rest of the experiment [2, 3]: ≤ 2 stage | number of mossy fiber terminals innervating the IML (ZnT3) compared with SE animals ([2]; administered 30 min after SE onset, 8 weeks after SE): considerably reduced | neurodegeneration in the hippocampus (NeuN, Fluoro-jade C) compared with SE animals ([2]; administered 30 min after SE onset, one week later): significantly decreased

Reference: patent publication US9821072B2, “Activated neurotensin molecules and the uses thereof” (priority 2014, dated 2017)
